The subject of the assay is BDF1 mice, P388 leukemia ip, median survival T/C. The experiment in a line: NCI In Vivo Anticancer Drug Screen. Data for tumor model P388 Leukemia (intraperitoneal) in B6D2F1 (BDF1) mice. Conditions: endpoint: median survival time, higher = longer survival. A digest of the protocol: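 Antitumour effect was judged in vivo: survival in drug-treated mice, normalised to that of vehicle-dosed controls, gives the reported T/C.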

[1] abbreviates: dose: 25.0 mg/kg/injection, schedule: Q01DX009 (ip), vehicle: saline.
The mark [2] stands for this setting: dose: 100.0 mg/kg/injection, schedule: Q01DX009 (ip), vehicle: saline.
Where [3] appears, read: dose: 200.0 mg/kg/injection, schedule: Q01DX009 (ip), vehicle: saline.
The mark [4] stands for this setting: dose: 100.0 mg/kg/injection, schedule: Q01DX001 (ip), vehicle: Klucel (hydroxypropylcellulose) (HPC).
Where [5] appears, read: dose: 100.0 mg/kg/injection, schedule: Q04DX003 (ip), vehicle: Klucel (hydroxypropylcellulose) (HPC).
Setting [6] is: dose: 200.0 mg/kg/injection, schedule: Q01DX001 (ip), vehicle: Klucel (hydroxypropylcellulose) (HPC).
Where [7] appears, read: dose: 200.0 mg/kg/injection, schedule: Q04DX003 (ip), vehicle: Klucel (hydroxypropylcellulose) (HPC).
Where [8] appears, read: dose: 400.0 mg/kg/injection, schedule: Q01DX001 (ip), vehicle: Klucel (hydroxypropylcellulose) (HPC).
Setting [9] is: dose: 400.0 mg/kg/injection, schedule: Q04DX003 (ip), vehicle: Klucel (hydroxypropylcellulose) (HPC).
Where [10] appears, read: dose: 100.0 mg/kg/injection, schedule: Q01DX009 (ip), vehicle: saline with Tween-80.
Where [11] appears, read: dose: 200.0 mg/kg/injection, schedule: Q01DX009 (ip), vehicle: saline with Tween-80.
[12] abbreviates: dose: 50.0 mg/kg/injection, schedule: Q01DX009 (ip), vehicle: saline with Tween-80.
[13] abbreviates: dose: 100.0 mg/kg/injection, schedule: Q04DX003 (ip), vehicle: saline with Tween-80.
The mark [14] stands for this setting: dose: 200.0 mg/kg/injection, schedule: Q04DX003 (ip), vehicle: saline with Tween-80.
Setting [15] is: dose: 50.0 mg/kg/injection, schedule: Q01DX005 (ip), vehicle: saline with Tween-80.
Setting [16] is: dose: 200.0 mg/kg/injection, schedule: Q01DX005 (ip), vehicle: saline with Tween-80.

Where “and” joins values, the source holds several entries; their conditions need not be identical. Identical values can stand only once. Inconclusive results and toxic doses are left out.

`CN1Cc2cc3cc(c2O)C[N+](C)(C)Cc2c(Cl)c(c(Cl)c(c2Cl)C[N+](C)(C)C3)C1`: the T/C is 118 % of control (dose: 6.25 mg/kg/injection, schedule: Q01DX009 (ip), vehicle: saline); 108 % of control (dose: 8.2 mg/kg/injection, schedule: Q01DX009 (ip), vehicle: saline); 108 % of control (dose: 12.5 mg/kg/injection, schedule: Q01DX009 (ip), vehicle: saline); 104 % of control (dose: 25.0 mg/kg/injection, schedule: Q01DX001 (ip), vehicle: saline); 109 % of control under setting [1]; 100 % of control (dose: 50.0 mg/kg/injection, schedule: Q01DX001 (ip), vehicle: saline). For the setting “dose: 118.0 mg/kg/injection, schedule: Q01DX009 (ip), vehicle: saline”, the T/C is 112 % of control.

For the compound `COc1cc2ccncc2cc1O`, the T/C reads like this: (dose: 3.13 mg/kg/injection, schedule: Q04DX003 (ip), vehicle: water) 97 % of control; (dose: 6.25 mg/kg/injection, schedule: Q04DX003 (ip), vehicle: water) 97 % of control; (dose: 12.5 mg/kg/injection, schedule: Q04DX003 (ip), vehicle: water) 94 % of control; (dose: 25.0 mg/kg/injection, schedule: Q04DX003 (ip), vehicle: water) 94 % of control; (dose: 50.0 mg/kg/injection, schedule: Q04DX003 (ip), vehicle: water) 101 % of control.

Consider `CS(=O)(=O)Nc1ccc(C(=O)CCN2CCCCCC2)cc1`, for which the T/C under setting [1] was 108 % of control and 110 % of control; the T/C (dose: 50.0 mg/kg/injection, schedule: Q01DX009 (ip), vehicle: saline) is 110 % of control and 112 % of control and 113 % of control; the T/C under setting [2] was 117 % of control; the T/C under setting [3] was 117 % of control.

Take `Sc1ccc2ccccc2c1`: the T/C reads like this: (dose: 50.0 mg/kg/injection, schedule: Q04DX003 (ip), vehicle: Klucel (hydroxypropylcellulose) (HPC)) 104 % of control; under setting [4], 104 % of control; under setting [5], 109 % of control; under setting [6], 95 % of control; under setting [7], 109 % of control; under setting [8], 100 % of control.

Take `CC(=O)NNC(=O)c1ccncc1`: the T/C reads like this: (dose: 100.0 mg/kg/injection, schedule: Q04DX003 (ip), vehicle: saline) 100 % of control; (dose: 200.0 mg/kg/injection, schedule: Q04DX003 (ip), vehicle: saline) 118 % of control; (dose: 400.0 mg/kg/injection, schedule: Q04DX003 (ip), vehicle: saline) 100 % of control.

`COC(=O)c1ccc([N+](=O)[O-])c(OC)c1`: the T/C was 100 % of control (dose: 75.0 mg/kg/injection, schedule: Q04DX003 (ip), vehicle: saline); 100 % of control (dose: 150.0 mg/kg/injection, schedule: Q04DX003 (ip), vehicle: saline); 104 % of control (dose: 300.0 mg/kg/injection, schedule: Q04DX003 (ip), vehicle: saline).

`O=C(O)C1CC=CCCC1` (stereo not drawn): the T/C reads like this: (dose: 100.0 mg/kg/injection, schedule: Q01DX009 (ip), vehicle: Klucel (hydroxypropylcellulose) (HPC)) 95 % of control; under setting [5], 91 % of control; (dose: 200.0 mg/kg/injection, schedule: Q01DX009 (ip), vehicle: Klucel (hydroxypropylcellulose) (HPC)) 104 % of control; under setting [7], 95 % of control; (dose: 400.0 mg/kg/injection, schedule: Q01DX009 (ip), vehicle: Klucel (hydroxypropylcellulose) (HPC)) 104 % of control; under setting [9], 91 % of control.

Consider `N#CCCSC(=S)C1CCCC1=N` (stereo not drawn), for which the T/C runs as follows: under setting [10], 112 % of control; under setting [11], 102 % of control.

As to `CC(=O)OCC(OC(C)=O)c1cc(/C=N/N(C(C)=O)c2ccccc2)nn1-c1ccccc1` (stereo not drawn), the T/C is 101 % of control (dose: 25.0 mg/kg/injection, schedule: Q01DX009 (ip), vehicle: saline with Tween-80); 98 % of control under setting [12]; 96 % of control under setting [10].

Take `O=C(O)CNOCN1C(=O)c2ccccc2C1=O`: the T/C was 104 % of control under setting [4], 91 % of control under setting [6] and 95 % of control under setting [8].

In the case of `CS(=O)(=O)Nc1ccc(NS(C)(=O)=O)c(SCc2ccccc2)c1`, the T/C under setting [4] was 100 % of control, the T/C under setting [6] is 100 % of control and the T/C under setting [8] is 100 % of control.

For the compound `Cc1n[nH]c(C)c1Br`, the T/C is 95 % of control (dose: 75.0 mg/kg/injection, schedule: Q01DX009 (ip), vehicle: saline with Tween-80); 98 % of control (dose: 150.0 mg/kg/injection, schedule: Q01DX009 (ip), vehicle: saline with Tween-80); 95 % of control (dose: 300.0 mg/kg/injection, schedule: Q01DX009 (ip), vehicle: saline with Tween-80).

With `CCC(SC(CC(=O)O)C(=O)O)C(=O)O` (stereo not drawn), the T/C was 100 % of control (dose: 12.5 mg/kg/injection, schedule: Q01DX001 (ip), vehicle: saline with Tween-80); 99 % of control (dose: 25.0 mg/kg/injection, schedule: Q01DX001 (ip), vehicle: saline with Tween-80); 90 % of control (dose: 50.0 mg/kg/injection, schedule: Q01DX001 (ip), vehicle: saline with Tween-80).

`C=C(C)C12OC3(c4ccccc4)OC1C1C4OC4(CO)C(O)C4(O)C(=O)C(C)=CC4C1(O3)C(C)C2OC(=O)c1ccccc1` (stereo not drawn): the T/C was 106 % of control (dose: 6.3 micrograms/kg/injection, schedule: Q01DX009 (ip), vehicle: saline + alcohol); 108 % of control (dose: 12.5 micrograms/kg/injection, schedule: Q01DX009 (ip), vehicle: saline + alcohol); 150 % of control (dose: 200.0 micrograms/kg/injection, schedule: Q01DX009 (ip), vehicle: saline + alcohol).

Consider `O=c1[nH]c2cc(F)ccc2o1`, for which the T/C runs as follows: under setting [5], 100 % of control; under setting [7], 95 % of control; under setting [9], 100 % of control.

For `Ic1ncnc2nc[nH]c12`, the T/C by setting is: (dose: 75.0 mg/kg/injection, schedule: Q01DX009 (ip), vehicle: Klucel (hydroxypropylcellulose) (HPC)) 113 % of control; under setting [2], 104 % of control; under setting [13], 95 % of control; (dose: 150.0 mg/kg/injection, schedule: Q01DX009 (ip), vehicle: Klucel (hydroxypropylcellulose) (HPC)) 113 % of control; under setting [3], 108 % of control; under setting [14], 104 % of control. Moreover, the T/C (dose: 300.0 mg/kg/injection, schedule: Q01DX009 (ip), vehicle: Klucel (hydroxypropylcellulose) (HPC)) was 109 % of control; the T/C (dose: 400.0 mg/kg/injection, schedule: Q01DX009 (ip), vehicle: saline) is 100 % of control; the T/C (dose: 400.0 mg/kg/injection, schedule: Q04DX003 (ip), vehicle: saline with Tween-80) was 95 % of control.

Turning to `CN(CCO)C1=C(N2CC2)C(=O)C(N(C)CCO)=C(N2CC2)C1=O`, the T/C reads like this: (dose: 200.0 micrograms/kg/injection, schedule: Q01DX009 (ip), vehicle: saline) 116 % of control; (dose: 400.0 micrograms/kg/injection, schedule: Q01DX009 (ip), vehicle: saline) 157 % of control; (dose: 800.0 micrograms/kg/injection, schedule: Q01DX009 (ip), vehicle: saline) 228 % of control.

For the compound `O=C1c2ccccc2C(=O)c2c(O)c(NCCCN3CCOCC3)cc(O)c21`, the T/C under setting [15] is 99 % of control; the T/C (dose: 100.0 mg/kg/injection, schedule: Q01DX005 (ip), vehicle: saline with Tween-80) was 94 % of control; the T/C under setting [16] is 94 % of control.

For the compound `CC(C)/[N+]([O-])=C/C=C/c1ccccc1`, the T/C was 100 % of control under setting [5], 100 % of control under setting [7] and 113 % of control under setting [9].

Consider `CC(=O)N1C(=O)NC(=O)C1(C)c1ccc(Cl)s1` (stereo not drawn), for which the T/C under setting [12] was 92 % of control; the T/C under setting [10] is 97 % of control; the T/C under setting [13] was 100 % of control; the T/C under setting [11] was 113 % of control; the T/C under setting [14] was 100 % of control; the T/C (dose: 400.0 mg/kg/injection, schedule: Q01DX009 (ip), vehicle: saline with Tween-80) was 106 % of control.

In the case of `COc1ccc(CC2c3cc(OC)c(OC)cc3CCN2C(C)=O)cc1OC` (stereo not drawn), the T/C was 90 % of control under setting [15] and 88 % of control under setting [16].
